Assay results taken from patent US12709592B2, “Salts of treprostinil” (United Therapeutics Corporation, priority 2013, dated 2026).
Where a name gives a salt, the structure may show the parent alone.

Assay: TGA data of UT-15 salts (thermal degradation)
Format: physicochemical
Conditions: thermogravimetric analysis of the isolated solid salt; temperature beyond which weight loss due to degradation occurs
Excerpt: For all new UT-15 salts, analytical data: IH-NMR, 13C_NMR, IR, purity by HPLC, DSC data, TGA data, water contents, specific rotation were collected.

SMILES	TGA: loss due to degradation beyond
CCCCC[C@H](O)CC[C@@H]1[C@H]2Cc3cccc(OCC(=O)O)c3C[C@H]2C[C@H]1O [Arginine Salt]	Moisture = 2.07, degradation beyond 200 °C
CCCCC[C@H](O)CC[C@@H]1[C@H]2Cc3cccc(OCC(=O)O)c3C[C@H]2C[C@H]1O [Choline Salt]	degradation beyond 150 °C
CCCCC[C@H](O)CC[C@@H]1[C@H]2Cc3cccc(OCC(=O)O)c3C[C@H]2C[C@H]1O [L-Lysine Salt]	degradation beyond 200 °C
CCCCC[C@H](O)CC[C@@H]1[C@H]2Cc3cccc(OCC(=O)[O][MgH])c3C[C@H]2C[C@H]1O [Mg Salt]	degradation beyond 250 °C
CCCCC[C@H](O)CC[C@@H]1[C@H]2Cc3cccc(OCC(=O)O)c3C[C@H]2C[C@H]1O [N-Methylglucamine Salt]	degradation beyond 150 °C
CCCCC[C@H](O)CC[C@@H]1[C@H]2Cc3cccc(OCC(=O)[O-])c3C[C@H]2C[C@H]1O.[K+] [Potassium Salt]	degradation beyond 250 °C
